Earlier results in patent US20230345942A1, “CORONA VIRUS KILLING AGENT” (SANKEI CO., LTD., priority 2020, published 2023).

Key:
Influenza = system: Influenza; set-up: key: ◯ Effective; ∇ Low efficacy; ⊚ Effective even in the presence of organic matter
Norovirus (alternative) = system: Norovirus (alternative); set-up: key: ◯ Effective; ∇ Low efficacy; ⊚ Effective even in the presence of organic matter
Novel coronavirus = system: Novel coronavirus; set-up: key: ◯ Effective; ∇ Low efficacy; ⊚ Effective even in the presence of organic matter
[1] = as qualified in the cell (undiluted solution / at usage concentration)

| Compound | Antibacterial/fungal activity (bacteria, fungi) | Antiviral activity: Influenza (Influenza) | Antiviral activity: Norovirus (alternative) (Norovirus (alternative)) | Antiviral activity: Novel coronavirus (Novel coronavirus) | Safety [1] | Concentration required for an inactivation effect on enveloped viruses (enveloped viruses) |
| --- | --- | --- | --- | --- | --- | --- |
| CCO [Disinfecting ethanol, Ethanol] | Broad range | ◯ | ∇ | ◯ | Flammable | – |
| OCl [Sodium hypochlorite] | Broad range | ◯ | ◯ | ◯ | hazardous | – |
| CCO [alcohol] | – | – | – | – | – | ≥ 70 % (v/v) |
